Molecules are shown by their SMILES.

Sequence of EGFR del19/T790M/C797S mutant kinase (P00533 with tags, fused parts or gaps C797S/DEL746-750/T790M limits assumed): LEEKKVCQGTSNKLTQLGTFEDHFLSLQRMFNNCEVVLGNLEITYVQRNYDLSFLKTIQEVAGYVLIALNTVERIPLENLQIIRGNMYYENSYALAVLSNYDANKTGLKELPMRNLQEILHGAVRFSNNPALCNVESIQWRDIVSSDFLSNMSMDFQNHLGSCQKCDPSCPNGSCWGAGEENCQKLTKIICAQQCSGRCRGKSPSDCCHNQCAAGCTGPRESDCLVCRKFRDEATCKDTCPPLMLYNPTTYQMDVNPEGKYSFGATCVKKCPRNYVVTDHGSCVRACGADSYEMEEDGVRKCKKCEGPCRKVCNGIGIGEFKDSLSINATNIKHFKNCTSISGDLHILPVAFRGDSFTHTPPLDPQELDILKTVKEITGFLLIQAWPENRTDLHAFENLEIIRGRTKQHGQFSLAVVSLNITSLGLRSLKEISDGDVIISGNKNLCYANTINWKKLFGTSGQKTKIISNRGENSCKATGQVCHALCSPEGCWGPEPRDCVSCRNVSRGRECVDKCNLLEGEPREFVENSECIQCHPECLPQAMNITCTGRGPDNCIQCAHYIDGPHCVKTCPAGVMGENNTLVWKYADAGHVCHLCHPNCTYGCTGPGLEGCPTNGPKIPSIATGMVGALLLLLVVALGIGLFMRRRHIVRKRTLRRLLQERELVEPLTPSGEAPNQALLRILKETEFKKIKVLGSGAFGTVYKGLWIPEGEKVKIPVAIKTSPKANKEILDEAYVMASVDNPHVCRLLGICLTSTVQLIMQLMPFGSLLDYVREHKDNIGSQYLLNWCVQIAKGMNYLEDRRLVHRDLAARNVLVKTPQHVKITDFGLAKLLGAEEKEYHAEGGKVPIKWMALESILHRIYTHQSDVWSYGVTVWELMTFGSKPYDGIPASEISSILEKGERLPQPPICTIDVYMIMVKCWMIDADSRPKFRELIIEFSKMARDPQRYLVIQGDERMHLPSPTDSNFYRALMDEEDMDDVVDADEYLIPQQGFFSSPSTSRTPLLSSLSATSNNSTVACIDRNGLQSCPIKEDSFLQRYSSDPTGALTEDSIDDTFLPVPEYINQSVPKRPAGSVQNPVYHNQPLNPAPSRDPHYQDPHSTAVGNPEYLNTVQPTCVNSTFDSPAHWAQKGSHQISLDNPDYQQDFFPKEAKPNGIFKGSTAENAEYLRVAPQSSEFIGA

The first assay concerns the target EGFR del19/T790M/C797S mutant kinase (Homo sapiens, UniProt P00533, C797S/DEL746-750/T790M). Put plainly: HTRF kinase assay, EGFR del19/T790M/C797S mutant kinase. The settings on record: 120 minutes at room temperature. The class given is biochemical. The text has this:
Test Example 1. Determination of the Inhibitory Effect of the Compounds of the Present Invention on the Activity of EGFR del19/T790M/C797S and EGFR L858R/T790M/C797S Mutant Kinases
Experimental objective: The objective of this test example is to test the inhibitory activity of the compounds on the activity of EGFR del19/T790M/C797S and EGFR L858R/T790M/C797S mutant kinases.
Experimental method: This experiment used Cisbio's HTRF kinase assay method (Cisbio #62TK0PEB), wherein a catalytic reaction occurred between the substrate polypeptide TK and ATP in the presence of the tyrosine kinase with EGFR del19/T790M/C797S or EGFR L858R/T790M/C797S mutation, the substance was phosphorylated, and the activity of the kinase was characterized by measuring the content of the phosphorylated substrate generated during the reaction, and the half inhibitory concentration IC50 of the compound on the activity of EGFR del19/T790M/C797S or EGFR L858R/T790M/C797S mutant kinase was obtained.
Specific Experimental Operations were as Follows: • the kinase reaction was carried out in a white 384-well plate (Perkin Elmer #6008280), and 1-5 μL of compounds of different concentrations which were diluted with 1% DMSO-containing ddH2O were added; to the positive control wells were added 1-5 μL of 1% DMSO-containing ddH2O, followed by 1-5 μL of 0.5-5 nM 4×EGFR del19/T790M/C797S or EGFR L858R/T790M/C797S mutant kinase solution which was diluted with Dilution buffer (5× kinase buffer, MgCl2 6.65 Mm, MnCl2 1.33 mM, DTT 1.33 mM); to the negative control wells were added 1-5 μL of Dilution buffer; to all the wells were added 1-5 μL of 4 μM 4× substrate TK solution which was prepared with 10× Dilution buffer, and finally added 1-5 μL of 24 μM 4×ATP solution which was diluted with Dilution buffer to start the reaction; after reacting at room temperature for 120 minutes, 10 μL of detection solution (TK antibody 16 nM, XL665 0.5 μM) was added to each well, same was reacted at room temperature in the dark for 20 minutes, and then the […] was detected using a BioTek Synergy H1 microplate reader.
The percent inhibition data for compound-treated wells was calculated according to the positive control wells (DMSO control wells) and negative control wells (no kinase added) on the plate {% inhibition rate=100−[(test compound value−negative control value)]/(positive control value−negative control value)×100}. GraphPad prism was used to fit different concentrations and corresponding percent inhibition rate data to a 4-parameter nonlinear logistic equation to calculate IC50 values.
For orientation: In TR-FRET formats the signal depends on donor and acceptor labels being close together.
Take `CC(C)c1ccc(N2C[C@H](CS(C)(=O)=O)[C@H]2C)c2cnc(Nc3ccnc(-c4cnn(CC5(CC#N)CC5)c4)n3)cc12` [Example 18, 2-(1-((4-(4-((5-isopropyl-8-((2R,3S)-2-methyl-3-((methanesulfonyl)methyl)azetidin-1-yl)isoquinolin-3-yl)amino)pyrimidin-2-yl)-1H-pyrazol-1-yl)methyl)cyclopropyl)acetonitrile]: the IC50 is 9.1 nM.

For `CC(C)c1ccc(N2C[C@H](CS(C)(=O)=O)[C@H]2C)c2cnc(Nc3ccnc(-c4cnn(CCO)c4)n3)cc12` [Example 48, 2-(4-(4-((5-isopropyl-8-((2R,3S)-2-methyl-3-((methanesulfonyl)methyl)azetidin-1-yl)isoquinolin-3-yl)amino)pyrimidin-2-yl)-1H-pyrazol-1-yl)ethan-1-ol], the IC50 is 4.2 nM.

With `CC(C)c1ccc(N2C[C@H](CS(C)(=O)=O)[C@H]2C)c2cnc(Nc3ccnc(-c4cncs4)n3)cc12` [Example 54, 5-isopropyl-8-((2R,3S)-2-methyl-3-((methanesulfonyl)methyl)azetidin-1-yl)-N-(2-(thiazol-5-yl)pyrimidin-4-yl)isoquinolin-3-amine], the IC50 was determined as 7.5 nM.

A further assay concerns Ba/F3 EGFR Del19/C797S cells. Put plainly: Cell proliferation inhibition assay (Cell Titer-Glo), Ba/F3 EGFR Del19/C797S. It counts as cell-based. The settings on record: 72 hours, read-out: Ba/F3 EGFR Del19_C797S IC50. The source says: Test Example 2: Cell Proliferation Inhibition Assay
Experimental objective: The objective of this test example is to test the inhibitory activity of compounds on the proliferation of different EGFR C797S drug-resistant mutant cell lines Ba/F3 EGFR Del19/T790M/C797S, Ba/F3 EGFR L858R/T790M/C797S, and Ba/F3 EGFR Del19/C797S.
• Ba/F3 EGFR Del19/T790M/C797S cells were purchased from KYinno Biotechnology Co., Ltd.; • Ba/F3 EGFR Del19/C797S cells were purchased from CoBioer Biosciences Co., Ltd.; • Ba/F3 EGFR L858R/T790M/C797S cells were purchased from CoBioer Biosciences Co., Ltd.; • Cell Titer-Glo was purchased from Promega, with a catalog number of G7573; • RPMI 1640 was purchased from Gibco, with a catalog number of 22400089; • FBS was purchased from Gibco, with a catalog number of 10091148; • cell culture plates were purchased from Corning, with a catalog number of 3610.
The inhibitory activity of the compound on the proliferation of different EGFR C797S drug-resistant mutant cell lines was detected using the Cell Titer-Glo method. The different cell lines were cultured in RPMI 1640 complete culture medium containing 10% FBS under conditions of 37° C. and 5% CO2, the cells were collected by centrifugation when growing to a certain density, and adjusted to appropriate cell density after counting, the cells were spread on a white 96-well plate at 90 μL/well, and cultured in a 37° C., 5% CO2 incubator overnight, prepared compound solutions of different concentrations were added at 10 μL/well, corresponding solvent controls were set, and all wells were cultured in a 37° C., 5% CO2 incubator for 72 hours, 50 μL of CellTiter-Glo solution was added to each well, shook and mixed evenly, and incubated in the dark for 10 minutes, and a BioTek Synergy H1 microplate reader was used for reading.
The luminescence signal value was used to calculate the inhibition rate. Graphpad Prism software was used to fit the concentration and inhibition rate to a nonlinear regression curve, so as to obtain the IC50 value, as shown in Tables 3 and 4 below for details.
(In general: In ATP-based viability assays light output follows the ATP content of the culture.)
For the compound `CC(C)c1ccc(N2C[C@H](CS(C)(=O)=O)[C@H]2C)c2cnc(Nc3ccnc(-c4cnn(CCO)c4)n3)cc12` [Example 48, 2-(4-(4-((5-isopropyl-8-((2R,3S)-2-methyl-3-((methanesulfonyl)methyl)azetidin-1-yl)isoquinolin-3-yl)amino)pyrimidin-2-yl)-1H-pyrazol-1-yl)ethan-1-ol], the IC50 is 85 nM.

Take `CC(C)c1ccc(N2C[C@H](CS(C)(=O)=O)[C@H]2C)c2cnc(Nc3ccnc(-c4cncs4)n3)cc12` [Example 54, 5-isopropyl-8-((2R,3S)-2-methyl-3-((methanesulfonyl)methyl)azetidin-1-yl)-N-(2-(thiazol-5-yl)pyrimidin-4-yl)isoquinolin-3-amine]: the IC50 came to 32 nM.

Regarding `[2H]C([2H])([2H])n1cc(-c2nccc(Nc3cc4c(C(C)C)ccc(N5C[C@H](CS(C)(=O)=O)[C@H]5C)c4cn3)n2)c(F)n1` [Example 65, N-(2-(3-fluoro-1-(methyl-d3)-1H-pyrazol-4-yl)pyrimidin-4-yl)-5-isopropyl-8-((2R,3S)-2-methyl-3-((methylsulfonyl)methyl)azabut-1-yl)isoquinolin-3-amine], the IC50 turned out to be 84 nM.

Regarding `CC(C)c1ccc(N2C[C@H](CS(C)(=O)=O)[C@H]2C)c2cnc(Nc3ccnc(-c4cn(CCC#N)nc4Cl)n3)cc12` [Example 67, 3-(3-chloro-4-(4-((5-isopropyl-8-((2R,3S)-2-methyl-3-((methanesulfonyl)methyl)azetidin-1-yl)isoquinolin-3-yl)amino)pyrimidin-2-yl)-1H-pyrazol-1-yl)propanenitrile], the IC50 came out at 20 nM.

For `CC(C)c1ccc(N2CC(N3CCCS3(=O)=O)C2)c2cnc(Nc3ccnc(-c4cn(C)nc4Cl)n3)cc12` [Example 68, 2-(1-(3-((2-(3-chloro-1-methyl-1H-pyrazol-4-yl)pyrimidin-4-yl)amino)-5-isopropylisoquinolin-8-yl)azetidin-3-yl)isothiazolidine 1,1-dioxide], the IC50 is 21 nM.

As for `Cc1nn(C)cc1-c1nccc(Nc2cc3c(C(C)C)ccc(N4CC(N5CCCS5(=O)=O)C4)c3cn2)n1` [Example 69, 2-(1-(3-((2-(1,3-dimethyl-1H-pyrazol-4-yl)pyrimidin-4-yl)amino)-5-isopropylisoquinolin-8-yl)azetidin-3-yl)isothiazolidine 1,1-dioxide], the IC50 is 51 nM.

As for `CC(C)c1ccc(N2C[C@H](CS(C)(=O)=O)[C@H]2C)c2cnc(Nc3ccnc(-c4cn(CCN)nc4Cl)n3)cc12` [Example 71, N-(2-(1-(2-aminoethyl)-3-chloro-1H-pyrazol-4-yl)pyrimidin-4-yl)-5-isopropyl-8-((2R,3S)-2-methyl-3-((methanesulfonyl)methyl)azetidin-1-yl)isoquinolin-3-amine], the IC50 stood at 96 nM.

Turning to `COC(=O)NC1CN(c2ccc(C(C)C)c3cc(Nc4ccnc(-c5cn(C)nc5Cl)n4)ncc23)C1` [Example 72, methyl (1-(3-((2-(3-chloro-1-methyl-1H-pyrazol-4-yl)pyrimidin-4-yl)amino)-5-isopropylisoquinolin-8-yl)azetidin-3-yl)carbamate], the IC50 came to 77 nM.

In the case of `CC(C)c1ccc(N2CC(C[N+](=O)[O-])C2)c2cnc(Nc3ccnc(-c4cn(C)nc4Cl)n3)cc12` [Example 75, N-(2-(3-chloro-1-methyl-1H-pyrazol-4-yl)pyrimidin-4-yl)-5-isopropyl-8-(3-(nitromethyl)azetidin-1-yl)isoquinolin-3-amine], the IC50 was 28 nM.

As to `CC(C)c1ccc(N2CC(C[S+](C)[O-])C2)c2cnc(Nc3ccnc(-c4cn(C)nc4Cl)n3)cc12` (stereo not drawn) [Example 76, N-(2-(3-chloro-1-methyl-H-pyrazol-4-yl)pyrimidin-4-yl)-5-isopropyl-8-(3-((methylsulfinyl<sulfenyl>)methyl)azetidin-1-yl)isoquinolin-3-amine], the IC50 turned out to be 63 nM.

Turning to `Cc1nn(C)c(F)c1-c1nccc(Nc2cc3c(C(C)C)ccc(N4C[C@H](CS(C)(=O)=O)[C@H]4C)c3cn2)n1` [Example 77, N-(2-(5-fluoro-1,3-dimethyl-1H-pyrazol-4-yl)pyrimidin-4-yl)-5-isopropyl-8-((2R,3S)-2-methyl-3-((methanesulfonyl)methyl)azetidin-1-yl)isoquinolin-3-amine], the IC50 came to 12 nM.

Regarding `CC(C)c1ccc(N2C[C@H](CS(C)(=O)=O)[C@H]2C)c2cnc(Nc3ccnc(-c4cn(C5COC5)nc4Cl)n3)cc12` [Example 81, N-(2-(3-chloro-1-(oxetan-3-yl)-1H-pyrazol-4-yl)pyrimidin-4-yl)-5-isopropyl-8-((2R,3S)-2-methyl-3-((methanesulfonyl)methyl)azetidin-1-yl)isoquinolin-3-amine], the IC50 was 50 nM.

Turning to `CC(C)c1ccc(N2C[C@H](CS(C)(=O)=O)[C@H]2C)c2cnc(Nc3ccnc(-c4cn(CC(O)CF)nc4Cl)n3)cc12` (stereo partly drawn) [Example 82, 1-(3-chloro-4-(4-((5-isopropyl-8-((2R,3S)-2-methyl-3-((methanesulfonyl)methyl)azetidin-1-yl)isoquinolin-3-yl)amino)pyrimidin-2-yl)-1H-pyrazol-1-yl)-3-fluoropropan-2-ol], the IC50 came out at 33 nM.

As for `Cc1nn(C)cc1-c1nccc(Nc2cc3c(C(C)C)ccc(N4CC(CS(C)(=O)=NC#N)C4)c3cn2)n1` (stereo not drawn) [Example 83, N-(((1-(3-((2-(1,3-dimethyl-1H-pyrazol-4-yl)pyrimidin-4-yl)amino)-5-isopropylisoquinolin-8-yl)azetidin-3-yl)methyl)(methyl)(carbonyl)-l6-sulfanylidene)cyanamide], the IC50 worked out at 74 nM.

Regarding `CC(C)c1ccc(N2CC(N3C[C@@H](C)OC3=O)C2)c2cnc(Nc3ccnc(-c4cn(C)nc4Cl)n3)cc12` [Example 84, (R)-3-(1-(3-((2-(3-chloro-1-methyl-1H-pyrazol-4-yl)pyrimidin-4-yl)amino)-5-isopropylisoquinolin-8-yl)azetidin-3-yl)-5-methyloxazolidin-2-one], the IC50 amounted to 93 nM.

The record behind these values is US20250368616A1, “NITROGEN-CONTAINING HETEROCYCLIC DERIVATIVE INHIBITOR, AND PREPARATION METHOD THEREFOR AND USE THEREOF” (SHANGHAI HANSOH BIOMEDICAL CO., LTD., priority 2021, published 2025).
